In patent US20080027044A1, “Prodrug antibiotic screens” (priority 2006, published 2008):
Values after ≈ are worked out from the molar mass of the structure shown.

Experiments:
[1] = Schulz et al. (1997); cited from earlier work
[2] = tested on: E. coli K12 Δactivating enzyme; assay: MIC, broth microdilution, strains deleted in activating enzyme; format: cell-based; conditions: anaerobic conditions
Experimental: (§1) Cells were tested in a standard broth microdilution assay, inoculating 10^5 cells per well of a microtiter plate in LB broth. Overexpression and deletion strains were compared to the appropriate isogenic wild type. IPTG was added at 1 mM to growth medium. Experiments involving nfnB and nfsA strains were performed under anaerobic conditions.

[3] = tested on: E. coli K12 overexpressing activating enzyme; assay: MIC, broth microdilution, strains overexpressing activating enzyme; format: cell-based; conditions: for MIC: 1 mM IPTG; for susceptibility of strains overexpressing the corresponding activating enzymes: in words
Excerpt: Next, the hits that verify and have reduced activity compared to wild type or no activity against strains deleted in a known or putative enzyme are validated. The rationale is to test the hit against a strain overexpressing the putative activating enzyme. Strains overexpressing activating enzymes have considerably higher susceptibility to prodrugs. It is important to note that conventional antibiotics that inhibit specific targets have increased activity against strains with diminished expression of the target, and decreased activity if the target is overproduced (Schmid, M. B. (2001) New targets and strategies for identification of novel classes of antibiotics. In Antibiotic Development and Resistance. Hughes, D. and Andersson, D. I. (eds). New York: Taylor and Francis, pp. 197-208; Sun, D.e.a. (2001) In 41st Interscience Conference on Antimicrobial Agents and Chemotherapy Chicago: ASM, pp. 77). A prodrug hit has higher activity against a strain overexpressing an activating enzyme, and lower activity against a strain lacking/diminished in an activating enzyme. This behavior of a prodrug hit is the exact opposite from what one expects from a specific antibiotic, and will provide for an excellent preliminary validation of prodrugs. This validation is facilitated by the availability of the ASKA library of E. coli strains overexpressing all known ORFs. The University of Nagoya freely distributes this resource (Saka et al. (2005) DNA Res. 12:63-68). The library contains 4,382 individual E. coli K12 W3110 clones, each carrying a single ORF cloned in an expression vector pCA24N under a pT5/lac promoter. The N-termini carry a his-tag linked to the ORF by a 7 amino acid spacer. The vector carries a CAM resistance marker and a lacl^q gene for a tight control of IPTG-inducible expression.
(§2) The ASKA strains of interest are validated for functional expression of the enzyme. If the protein is not expressed from a given expression vector the ORF will be recloned. A strain overexpressing the activating enzyme from the ASKA library is then tested with the hit compound. If the hit has greater activity against this overexpressing strain as compared to the wild type, this indicates a prodrug. The test is performed in a standard broth microdilution assay for MIC determination. Hits with the lowest wild type MIC are then focused on.
as §1

[4] = tested on: E. coli K12 ΔtolC overexpressing activating enzyme; assay: MIC, broth microdilution, tolC deletion strains (MDR efflux test); format: cell-based
Excerpt: Prodrugs are activated by activating enzymes into reactive molecules that bind to their targets, creating an irreversible sink. This may lead to insensitivity of the overall process to MDR efflux. In order to test this possibility, an E. coli K12 with a deletion in tolC coding for the outer membrane porin that is a component of the transenvelope MDRs was utilized (Li, X. Z et al. (2004) Drugs 64:159-204). This strain is highly sensitive to antibiotics (Tegos et al. (2002) Antimicrob. Agents Chemother. 46:3133-3141). […] The substrate specificity of AcrAB is remarkably broad, and includes essentially all small molecular weight amphipathic compounds. The AcrAB substrates include anions (SDS, fatty acids, bile acids), neutral compounds (macrolides, chloramphenicol, tetracyclines) and cations or compounds that can form cations (acridine, quaternary compound antiseptics, fluoroquinolones). AcrAB can extrude the best natural broad spectrum antibiotics that evolved for good penetration —chloramphenicol and tetracycline; and extrude the best synthetic broad-spectrums, the fluoroquinolones. Indeed, amphipathic antimicrobials that are not an AcrAB substrate are not known.
as §1

P. aeruginosa = assay: Killing of logarithmic, stationary and biofilm cultures by bactericidal antimicrobials (colony count); format: cell-based; conditions: in words
Experimental: Persister cells in planktonic and biofilm populations are characterized for their antibiotic sensitivity in this example. Several bactericidal antimicrobials were chosen to test the resistance of P. aeruginosa to killing—ofloxacin, a fluoroquinolone; tobramycin, an aminoglycoside; carbenicillin, a β-lactam; and peracetic acid, a disinfectant oxidant (Spoering et al. (2001) J. Bacteriol. 183:6746-6751). Biofilms were grown essentially by the method of Ceri (Ceri et al. (1999) J. Clin. Microbiol. 37:1771-1776) and as described in Brooun et al. (2000) Antimicrob. Agents Chemother. 44:640-646. The device used for biofilm formation is a platform carrying 96 polystyrene pegs that fit in a microtiter plate. Preformed biofilms were incubated in the presence of an antimicrobial agent, and survival was measured after disrupting the biofilms by colony count.
Carbenicillin is a bactericidal antibiotic that, similarly to most β-lactams, only kills rapidly growing cells (Tuomanen et al. (1986) Scand. J. Gastroenterol. Suppl:10-14). Logarithmic state, stationary and biofilm cultures were challenged with carbenicillin.
Unlike carbenicillin, ofloxacin can kill non-growing cells (Brooun et al. (2000) Antimicrob. Agents Chemother. 44:640-646). […] After a 6 hours incubation time with the antibiotic, viability was determined by colony count. […]

E. coli K12 wt = assay: MIC, standard broth microdilution assay, wild type; format: cell-based; conditions: in words; all strains tested
Experimental: as §2, §1

[5] = E. coli K12 nfnB+ (overexpressing), anaerobic conditions
[6] = E. coli K12 nfsA+ (overexpressing), anaerobic conditions
[7] = E. coli K12 ΔtolC nfnB+ (overexpressing), anaerobic conditions
[8] = E. coli K12 ΔtolC nfsA+ (overexpressing), anaerobic conditions

Compound: CC1COc2c(N3CCN(C)CC3)c(F)cc3c(=O)c(C(=O)O)cn1c23 (stereo not drawn) [ofloxacin]
- clinically achievable concentration [1]: 5 µg/mL

Compound: NC(=O)c1cc([N+](=O)[O-])cc([N+](=O)[O-])c1 [3,5-Dinitrobenzamide]
- MIC ([2]; E. coli K12 nfnB− (deleted)): >500 µg/mL
- MIC ([2]; E. coli K12 nfsA− (deleted)): >500 µg/mL
- MIC [3, 5]: 15.6 µg/mL (≈ 73.9 µM)
- MIC [3, 6]: 7.8 µg/mL (≈ 36.9 µM)
- susceptibility of strains overexpressing the corresponding activating enzymes [3]: significantly increased susceptibilities
- MIC [4, 7]: 15.6 µg/mL (≈ 73.9 µM)
- MIC [4, 8]: 7.8 µg/mL (≈ 36.9 µM)

Compound: NC(=O)c1cc(N2CC2)c([N+](=O)[O-])cc1[N+](=O)[O-] [Dinitroaziridinylbenzamide (CB1954), Dinitroaziridinylbenzamide]
- MIC [3, 5]: 3.3 µg/mL (≈ 13.1 µM)
- MIC [3, 6]: 6.3 µg/mL (≈ 25 µM)
- susceptibility of strains overexpressing the corresponding activating enzymes [3]: significantly increased susceptibilities
- MIC [4, 7]: 3.3 µg/mL (≈ 13.1 µM)
- MIC [4, 8]: 6.3 µg/mL (≈ 25 µM)

Compound: CC(=O)OO [Peracetic acid, peracetic acid]
- killing of logarithmic, stationary and biofilm cultures (P. aeruginosa; all three cultures): all cultures were sterilized

Compound: CC[C@H]1OC(=O)[C@H](C)[C@@H](O[C@H]2C[C@@](C)(OC)[C@@H](O)[C@H](C)O2)[C@H](C)[C@@H](O[C@@H]2O[C@H](C)C[C@H](N(C)C)[C@H]2O)[C@](C)(O)C[C@@H](C)C(=O)[C@H](C)[C@@H](O)[C@]1(C)O [Erythromycin]
- MIC ([3]; E. coli K12 codA+ (overexpressing)): 200 µg/mL (≈ 273 µM)
- MIC ([3]; E. coli K12 deoD+ (overexpressing)): 200 µg/mL (≈ 273 µM)
- MIC [3, 6]: 200 µg/mL (≈ 273 µM)
- MIC ([4]; E. coli K12 ΔtolC codA+ (overexpressing)): 1.56 µg/mL (≈ 2.13 µM)
- MIC ([4]; E. coli K12 ΔtolC deoD+ (overexpressing)): 1.56 µg/mL (≈ 2.13 µM)
- MIC [4, 7]: 1.56 µg/mL (≈ 2.13 µM)
- MIC [4, 8]: 1.56 µg/mL (≈ 2.13 µM)

Compound: NC[C@H]1O[C@H](O[C@H]2[C@H](O)[C@@H](O[C@H]3O[C@H](CO)[C@@H](O)[C@H](N)[C@H]3O)[C@H](N)C[C@@H]2N)[C@H](N)C[C@@H]1O [Tobramycin, tobramycin]
- clinically achievable concentration [1]: 10 µg/mL
- killing of logarithmic cells (P. aeruginosa; logarithmic cells): no logarithmic persisters were detected

Compound: Nc1nc(O)ncc1F [5-fluorocytosine, 5-Fluorocytosine]
- activity against any strains tested (E. coli K12 wt): little activity
